Results from patent publication EP2954896A1, “Small molecule inhibitors of the E3 Ligase Skp2 in depression and other diseases” (Max-Planck-Gesellschaft zur Förderung der Wissenschaften …, priority 2014, dated 2015).

Legend:
[1] = Forced swim test after acute antidepressant injection in Fkbp51+/+ and Fkbp51-/- mice; type: in vivo; details: acute injection 10 mgkg-1
Description: The Fkbp51^-/- mouse line was previously generated (Touma C et al. (2011) Biol. Psychiatry 70: 928-936) and fully backcrossed to C57/BI6. […] Hippocampus and prefrontal cortex were extracted. […] Male mice (age 10-16 weeks) were injected intraperitoneally with a single dose of either AMI (10 mg kg^-1) or saline vehicle. […] Another subgroup (WT n=5, KO n=5) was sacrificed, and brain tissue and blood was sampled for analysis of drug concentrations. […] The inventors performed an additional forced swim test administering the antidepressant amitriptyline in FKBP51 WT and FKBP51 KO mice (Fig. 1 B).

[2] = test system: autophagy pathway markers; experiment: Chronic PAR treatment after chronic social defeat stress: autophagy pathway marker protein levels; type: in vivo, mice; details: effect of deletion of FKBP51
Description: Western blot analysis was performed on eluates from ColPs or with protein extracts from cells or tissue. Protein extracts were obtained by lysing cells or tissue (prelysed as described in the paragraph before) in 62.5 mM Tris, 2% SDS and 10% sucrose, supplemented with protease (Sigma, P2714) and phosphatase (Roche, 04906837001) inhibitor cocktail. Samples were sonicated and heated at 95 °C for 5 min. Proteins were separated by SDS-PAGE and electro-transferred onto nitrocellulose membranes. Blots were placed in Tris-buffered saline, supplemented with 0.05% Tween (Sigma, P2287) and 5% non-fat milk for 1 h at room temperature and then incubated with primary antibody (diluted in TBS/0.05% Tween) overnight at 4 °C. […]

[3] = test system: Beclin1 mRNA; experiment: Beclin1 mRNA expression by qPCR in rat cortical astrocytes; type: cell-based; details: 10µM for 72h; vehicle set to 1
Description: Enriched astroglial cultures were prepared from postnatal day 1 rat pups (Sprague-Dawley, Charles River, Sulzfeld, Germany) and handled as described by Attwood BK et al. (2011) Nature 473: 372-375 and Hartmann J et al. (2012) Neuropharmacology 62: 332-339.
Total RNA was isolated from astroglial cells according to the manufacturer's protocol of NucleoSpin RNA II (Macherey-Nagel, Germany). In total, 300 ng of purified RNA was reverse transcribed using random primers (Promega) and Omniscript® Reverse Transcriptase (Qiagen). Based on the LightCycler® System (Roche Applied Science, Germany) and SYBR green detection (QuantiFast® SYBR Green; Qiagen), quantitative assessment of Beclin1 cDNA levels were performed. b-Actin PCR was performed serving as endogenous control for normalization. The primers used were: for Beclin1: antisense - 5'-[…]-3' sense - 5'-[…]-3'; and for β-Actin: antisense - 5'-[…]-3', sense-5'-[…]-3'. Relative changes of gene expression were calculated using the comparative ΔΔCT method (Livak and Schmittgen, METHODS 25, 402-408, 2001). Detection of viral RNA by real-time PCR was as recently described (Corman et al. (2014) Journal of Clinical Virology 60: 168-171).
Beclin1 mRNA expression levels were determined by qPCR. HEK cells were treated either with proteasome inhibitor MG132 or with vehicle for 5h and Beclin1 protein levels were determined by Western analysis. Furthermore Co-immunoprecipitations were performed with Beclin1 antibody in HEK cell lysates with ectopic Ub-GFP.

SMILES: Fc1ccc([C@@H]2CCNC[C@H]2COc2ccc3c(c2)OCO3)cc1 [PAR, paroxetine]
- time spent struggling, forced swim test ([1]; Fkbp51+/+ mice): increase in the time spent struggling
- time floating (immobility), forced swim test ([1]; Fkbp51+/+ mice, versus vehicle): less time floating
- effect on time floating (immobility), forced swim test ([1]; Fkbp51-/- mice): significantly less pronounced
- effect on time spent struggling, forced swim test ([1]; Fkbp51-/- mice): significantly attenuated
- effects on autophagy pathway markers Beclin1, Atg12, pAktS473/Akt and LC3BII/I [2]: abolished
- Beclin1 mRNA expression level [3]: do not change Beclin1-mRNA
